Holding throughout (experiment): NCI anticancer screen, dose series, 48 h
Experiment [1] concerns T47D.
Experiment [2] deals with M19-MEL.
The subject of experiment [3] is SNB-78.
The subject of experiment [4] is DMS-114.
Experiment [5] deals with DLD-1.
Experiment [6] concerns LXFL 529.
Experiment [7] relates to XF498.
Experiment [8] deals with HOP-18.

Structures are written as SMILES.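 Briefly, cells in 96-well plates were exposed to five compound concentrations for 48 h, and endpoints were estimated by linear interpolation. At the GI50, growth is halved.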 Active and inactive are the calls of the source. Rule as the data show it: active = GI50 up to about 1.1 µM and inactive = higher. Where only a bound is given, the exact number is not on record here.

`Oc1cc(-c2ccccc2Cl)nc2cc3c(cc12)OCO3`: in experiment [1], the GI50 is 26.6 µM (inactive).
Still for that read-out and setting: the result for `c1ccc2c(c1)[nH]c1c3ccccc3sc21` reads 38.3 µM (inactive).
On the same count and under the same terms, as for `COc1cc(C2CC(C)(O)Oc3cc4c(cc32)OCO4)cc(OC)c1OC` (stereo not drawn), the figure is 0.296 µM (active).
Still for that read-out and setting: as for `CCn1c(=O)c2c3ccc(OC)cc3[nH]c2c2ccc(OC)cc21`, the figure is 24.6 µM (inactive).
With `O=C(CC1C=CCS1(=O)=O)NCc1ccccc1` (stereo not drawn), the GI50 in experiment [1] is > 100 µM (inactive).
The same measure, in the same setting: as for `COc1ccc(/C=N\NC(=O)Nc2cccc3ccccc23)cc1`, the figure is 14.1 µM (inactive).
Turning to `O=C(O)CN1CCN2CCCCCN(CC1)CCN(CC(=O)O)CC2`, the GI50 in experiment [1] was > 100 µM (inactive).
`O=C1OC(Cl)C(N=P(c2ccccc2)(c2ccccc2)c2ccccc2)=C1Cl` (stereo not drawn): the GI50 was > 100 µM (inactive) in experiment [2]; 37.9 µM (inactive) in experiment [3]; > 100 µM (inactive) in experiment [4]; > 100 µM (inactive) in experiment [5]; > 100 µM (inactive) in experiment [6]; > 100 µM (inactive) in experiment [7].
For the compound `CCN(CC)CCN1C=CC(C)C(C(=O)O)C1C(N)=O` (stereo not drawn), the GI50 in experiment [1] is > 100 µM (inactive).
Turning to `O=C(O)C1=C(O)C(C(=O)O)C23CCCCCCCCCCC12C(C(=O)O)C(O)=C3C(=O)O` (stereo not drawn), the GI50 in experiment [2], in experiment [4], in experiment [8], in experiment [5], in experiment [6] and in experiment [7] was > 100 µM (inactive) in each case.
Consider `C#CCN(N=O)C(=O)NCCCCC(NC(C)=O)C(=O)NCc1ccccc1` (stereo not drawn), for which the GI50 in experiment [2], in experiment [3], in experiment [4], in experiment [8], in experiment [5] and in experiment [6] was > 100 µM (inactive) throughout. In experiment [7], the GI50 is 2.68 µM (inactive).
Regarding `CC1(S)CC2C(CC1Sc1ccccc1)C2(C)C` (stereo not drawn), the GI50 in experiment [2], in experiment [3], in experiment [4], in experiment [8], in experiment [5] and in experiment [6] was > 100 µM (inactive) each time. Besides, the GI50 in experiment [7] was > 100 µM (inactive).
Consider `COc1ccc(N2C(=O)C3c4[nH]c5ccc(C)cc5c4C4CCC(C(C)(C)C)CC4C3C2=O)cc1` (stereo not drawn), for which the GI50 in experiment [1] was 35.2 µM (inactive).
For the compound `Cc1ccc(/N=N/N(C)C(C)C(O)Cc2ccccc2)cc1` (stereo not drawn), the GI50 in experiment [1] was 33.7 µM (inactive).
On the same count and under the same terms, the result for `COC(=O)/C=C1/OC(c2ccccc2)=C(Cl)C1=O` reads 19.1 µM (inactive); that for `CN(C)CCNC(=O)c1cccc(CO)c1[N+](=O)[O-]`, > 100 µM (inactive); that for `CC(C)(C)C(=O)Oc1ccc(/C=C/C(=O)c2ccc(OC(=O)C(C)(C)C)cc2)cc1`, 91.2 µM (inactive).
As to `Cc1ccc(Nc2nc(=O)c3c4ccccc4n(C(=O)OC(C)(C)C)c3s2)cc1`, the GI50 in experiment [1] is 39.2 µM (inactive).
Consider `CC1=C2C(=O)OCC23C=COC3(C)O1` (stereo not drawn), for which the GI50 in experiment [1] is 29.3 µM (inactive).
For the compound `N#CC(NNC(=O)c1ccccc1O)c1c(O)ccc2ccccc12` (stereo not drawn), the GI50 is 1.78 µM (inactive) in experiment [2]; 19.8 µM (inactive) in experiment [3]; 1.87 µM (inactive) in experiment [4]; 2.04 µM (inactive) in experiment [8]; 2.06 µM (inactive) in experiment [5]; 3.76 µM (inactive) in experiment [6]. In experiment [1], the GI50 was 2.96 µM (inactive).
Consider `CCc1cccc(C)c1NC(=S)NC(=O)c1ccccc1C(=O)NC(=S)Nc1c(C)cccc1CC`, for which the GI50 in experiment [2] is 39.2 µM (inactive); in experiment [3], > 100 µM (inactive); in experiment [4] it was 29.9 µM (inactive); in experiment [8] it was 50.7 µM (inactive); in experiment [5], > 100 µM (inactive); in experiment [6], 85.5 µM (inactive).
Consider `CC(C)c1cccc(C(C)C)c1NC(=O)C(=O)C(C(=O)c1ccc2ccccc2c1)C1OC(=O)c2ccccc21` (stereo not drawn), for which the GI50 in experiment [2] was 26.7 µM (inactive); in experiment [3] it was > 100 µM (inactive); in experiment [4], > 100 µM (inactive); in experiment [5] it was > 100 µM (inactive); in experiment [6], > 100 µM (inactive).
Turning to `CC(C)=CCC/C(C)=C/CC/C(C)=C/CC/C(C=O)=C/CC/C(C)=C\CC/C(C)=C/CC/C(C)=C/CC/C(C)=C/CC1=CC(=O)C=CC1=O`, in experiment [1], the GI50 was 10.5 µM (inactive).
The same measure, in the same setting: the result for `CC(SC(=S)N1CCCCC1)C(=O)Nc1nnc(-c2ccc(Cl)cc2)o1` (stereo not drawn) reads 36.8 µM (inactive); that for `C#CCn1c(=O)c2ccccc2n(CC#C)c1=O`, > 10 µM (inactive).
With `COC(=O)c1cccc2c3ccccc3c3ccccc3c12`, the GI50 in experiment [2] was 51.2 µM (inactive); in experiment [4], 29.4 µM (inactive); in experiment [8], 26.9 µM (inactive); in experiment [5] it was 65.9 µM (inactive); in experiment [6] it was 28 µM (inactive).
On to `COc1ccc(C2=Nn3c(nnc3-c3ccccc3)S/C2=C\c2ccc(-c3ccc([N+](=O)[O-])cc3)o2)cc1`, for which the GI50 in experiment [1] was 18.6 µM (inactive).
On the same count and under the same terms, as for `Cc1ccc(S(=O)(=O)/N=C(\NN)Nc2ccc(Cl)cc2)cc1`, the figure is 88.3 µM (inactive).
On the same count and under the same terms, as for `NCC(O)CNC(=O)c1ccc(-c2ccc(-c3ccc(C(=O)NCC(O)CN)cc3)o2)cc1` (stereo not drawn), the figure is 34.6 µM (inactive).
Still for that read-out and setting: as for `CC(CCN)(CCN)[N+](=O)[O-]`, the figure is > 100 µM (inactive); as for `CC(=O)Nc1[nH]c(C#N)nc1C#N`, > 100 µM (inactive); as for `CC(=O)c1cccc(Nc2nc3ccccc3c3occc23)c1`, 21 µM (inactive).
On to `CC1(C)C(=O)CCC(=O)C(C)(C)C2=CC=C(O2)C(C)(C)C(=O)CCC(=O)C(C)(C)C2=CC=C1O2`, for which the GI50 in experiment [2], in experiment [3], in experiment [8] and in experiment [6] was > 100 µM (inactive) throughout.
As to `O=C(c1ccco1)N(C(=S)OC12CC3CC(CC(C3)C1)C2)c1ccccc1`, the GI50 in experiment [1] was 47.2 µM (inactive).
For `CC1(C)CC(=O)C(CC2C(=O)c3ccccc3C2=O)C(=O)C1C(=O)C(=O)Nc1cccc2ccc(O)cc12` (stereo not drawn), the GI50 in experiment [1] was 27.4 µM (inactive).
For the compound `CCOC(=O)Cc1c(Cc2[nH]c(C(=O)OCc3ccccc3)c(CC(=O)OCC)c2CC(=O)OCC)[nH]c(C(=O)OCc2ccccc2)c1CC(=O)OCC`, the GI50 in experiment [2], in experiment [3], in experiment [4], in experiment [8] and in experiment [6] was > 100 µM (inactive) each time.
With `Cc1ccc2c3c(cnc2n1)C(=O)OCCN3C`, in experiment [1], the GI50 was > 100 µM (inactive).
On the same count and under the same terms, as for `CCC1(CC)C(=O)NN(C(=O)c2ccc(Cl)cc2)C1=O`, the figure is > 100 µM (inactive).
As to `CSC(=S)N(C)NC(=O)c1cccc(C(=O)NN(C)C(=S)SC)n1`, the GI50 in experiment [2] is 31 µM (inactive); in experiment [3], 27.7 µM (inactive); in experiment [4] it was 1.36 µM (inactive); in experiment [8], 78.5 µM (inactive); in experiment [5], 27.2 µM (inactive); in experiment [6], 10.4 µM (inactive).
For `CCOP(=O)(OCC)C(C)(CC)NC` (stereo not drawn), in experiment [1], the GI50 was > 100 µM (inactive).
Same read-out and setting: the result for `N=C(CCl)NC1CN2CCC1CC2` (stereo not drawn) reads 56.1 µM (inactive); that for `O=C(O)C/C=C/CC(=O)O`, > 100 µM (inactive).
Take `S=C1NCCN1`: the GI50 in experiment [2], in experiment [3], in experiment [4], in experiment [5], in experiment [6] and in experiment [7] was > 100 µM (inactive) throughout.
Turning to `CSc1cc(C(C)(C)C)ccc1C(O)c1ccc(C(C)(C)C)cc1SC`, the GI50 in experiment [2] was 10.2 µM (inactive); in experiment [3] it was 15.6 µM (inactive); in experiment [4], 7.69 µM (inactive); in experiment [8] it was 15.5 µM (inactive); in experiment [5] it was 8.36 µM (inactive); in experiment [6], 13.7 µM (inactive). The GI50 in experiment [7] is 10.8 µM (inactive).
Regarding `O=C1c2ccccc2-c2c1c(-c1ccc(O)cc1O)nc1ccc3ccccc3c21`, the GI50 in experiment [1] was > 100 µM (inactive).
On to `COC(=O)C1=C(C)N(NC(=O)c2ccccc2)C(C)(O)C12CCOC2=O` (stereo not drawn), for which the GI50 in experiment [3], in experiment [4], in experiment [8], in experiment [5], in experiment [6] and in experiment [7] was > 100 µM (inactive) throughout.
On to `Clc1ccc(-c2nnc3sc4nc5ccccc5c-4nn23)c(Cl)c1`, for which the GI50 in experiment [1] was 59.2 µM (inactive).
The same measure, in the same setting: as for `CCOC(=O)c1nc2ccc(C(F)(F)F)cc2nc1Nc1cc(OC)c(OC)c(OC)c1`, the figure is > 100 µM (inactive); as for `Cc1nc2ccc(F)cc2c2c1CCS2`, 33.7 µM (inactive); as for `COc1c(-c2nc3ccc(N4CCN(C)CC4)cc3[nH]2)cc(OC)c2[nH]c(COC(C)=O)nc12`, 24.8 µM (inactive).
In the case of `CCCCCc1cc2cc3c(c(O)c2c(=O)[nH]1)C1(CCC3)C(=O)c2c(O)c3c(c(O)c2C1=O)C(=O)C(OC)=CC3=O` (stereo not drawn), in experiment [1], the GI50 is 0.0959 µM (active).
The same measure, in the same setting: as for `O=C(O)c1ccccc1/N=N/c1c(O)c(S(=O)(=O)O)cc2cc(S(=O)(=O)O)ccc12`, the figure is > 100 µM (inactive).
Same read-out and setting: the result for `Cc1ccc(S(=O)(=O)N/N=C2/CCC3(O)CC2(C)CCC2[C@H]3CC2(C)C)cc1` (stereo partly drawn) reads > 100 µM (inactive).
`CC(C)[Si](OCC1CC(C#N)OC(C)(C)O1)(C(C)C)C(C)C` (stereo not drawn): the GI50 in experiment [2] was 25.2 µM (inactive); in experiment [3] it was 20.5 µM (inactive); in experiment [4] it was > 10 µM (inactive); in experiment [8], 30.5 µM (inactive); in experiment [5], 44.4 µM (inactive); in experiment [7], 21 µM (inactive).
Turning to `COc1c(O)c(OC)c2oc(-c3ccc(O)c(O)c3)c(OC)c(=O)c2c1O`, the GI50 in experiment [1] is 3.28 µM (inactive).
Consider `CN(C)CCNc1nc(-c2cccs2)cc(-c2cccs2)n1`, for which the GI50 in experiment [3] was 16.9 µM (inactive); in experiment [4], 8.73 µM (inactive); in experiment [8], < 0.01 µM (active); in experiment [5] it was 22.5 µM (inactive); in experiment [6] it was 14.8 µM (inactive); in experiment [7], 3.39 µM (inactive).
For the compound `CC(C)C[C@H](NC(=O)[C@H](Cc1cccc2ccccc12)NS(=O)(=O)c1cccc2cccnc12)B(O)O`, in experiment [1], the GI50 is < 0.01 µM (active).
On the same count and under the same terms, the result for `C=C1CC(Cn2ccc(=O)[nH]c2=O)(c2ccc(-c3ccccc3)cc2)OC1=O` (stereo not drawn) reads 1.57 µM (inactive); that for `O=C1Nc2ccccc2/C1=C\c1c(Cl)n(-c2ccccc2)c2ccccc12`, 3.41 µM (inactive).

The values above are taken from ChEMBL document CHEMBL1201862, “PubChem BioAssay data set” (2004).
